According to ChEMBL document CHEMBL1909046, “DrugMatrix in vitro pharmacology data”:

Legend:
[1] = target: T1, Alpha-2C adrenergic receptor (Homo sapiens, UniProt P18825); assay: DRUGMATRIX: Adrenergic Alpha-2C radioligand binding (ligand: [3H] MK-912); format: cell membranes, Sf9, Membrane; settings: sf9; also: call rule not given here
T1 sequence (P18825 whole entry): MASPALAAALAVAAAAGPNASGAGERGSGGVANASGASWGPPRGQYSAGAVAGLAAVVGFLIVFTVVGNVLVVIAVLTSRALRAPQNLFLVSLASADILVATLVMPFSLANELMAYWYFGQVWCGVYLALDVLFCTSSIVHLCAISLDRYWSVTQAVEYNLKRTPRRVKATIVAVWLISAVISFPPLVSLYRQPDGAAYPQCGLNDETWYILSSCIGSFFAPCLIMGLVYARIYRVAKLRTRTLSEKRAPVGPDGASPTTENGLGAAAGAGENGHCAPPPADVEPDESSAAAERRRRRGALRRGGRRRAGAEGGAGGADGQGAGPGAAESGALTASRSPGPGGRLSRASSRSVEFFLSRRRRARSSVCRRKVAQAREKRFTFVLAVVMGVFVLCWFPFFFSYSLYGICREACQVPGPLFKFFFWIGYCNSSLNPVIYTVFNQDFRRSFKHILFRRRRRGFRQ

B2 bradykinin receptor = target: T2, B2 bradykinin receptor (Homo sapiens, UniProt P30411); format: cell membranes, Membrane; settings: chem-1; also: in other assays of this panel Not Active means under 50% inhibition at 10 µM
T2 sequence (P30411 whole entry): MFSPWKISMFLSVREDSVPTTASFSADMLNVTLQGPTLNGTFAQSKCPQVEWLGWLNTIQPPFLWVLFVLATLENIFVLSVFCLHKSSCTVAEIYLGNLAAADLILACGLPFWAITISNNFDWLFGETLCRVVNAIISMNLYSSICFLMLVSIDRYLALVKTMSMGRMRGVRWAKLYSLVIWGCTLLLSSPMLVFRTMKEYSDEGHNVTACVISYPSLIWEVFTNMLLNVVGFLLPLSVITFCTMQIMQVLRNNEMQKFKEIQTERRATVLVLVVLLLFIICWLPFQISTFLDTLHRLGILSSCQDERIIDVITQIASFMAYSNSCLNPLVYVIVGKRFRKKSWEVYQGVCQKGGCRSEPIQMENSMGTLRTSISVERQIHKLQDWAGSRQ

[2] = target: T3, C-C chemokine receptor type 4 (Homo sapiens, UniProt P51679); format: cell membranes, Membrane; settings: chem-1; also: in other assays of this panel Not Active means under 50% inhibition at 10 µM
T3 sequence (P51679 whole entry): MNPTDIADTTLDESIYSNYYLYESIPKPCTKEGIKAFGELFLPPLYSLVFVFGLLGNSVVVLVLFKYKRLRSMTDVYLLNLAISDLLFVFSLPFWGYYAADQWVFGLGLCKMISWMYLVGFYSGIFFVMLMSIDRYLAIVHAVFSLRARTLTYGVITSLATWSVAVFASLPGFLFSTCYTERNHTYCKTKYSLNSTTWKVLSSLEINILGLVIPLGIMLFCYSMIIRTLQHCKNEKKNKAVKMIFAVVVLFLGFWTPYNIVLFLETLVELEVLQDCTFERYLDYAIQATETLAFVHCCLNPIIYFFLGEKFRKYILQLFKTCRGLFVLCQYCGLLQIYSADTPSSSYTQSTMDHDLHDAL

[3] = target: T4, C-X-C chemokine receptor type 2 (Homo sapiens, UniProt P25025); format: cell membranes, Membrane; settings: cho-k1; also: in other assays of this panel Not Active means under 50% inhibition at 10 µM
T4 sequence (P25025 whole entry): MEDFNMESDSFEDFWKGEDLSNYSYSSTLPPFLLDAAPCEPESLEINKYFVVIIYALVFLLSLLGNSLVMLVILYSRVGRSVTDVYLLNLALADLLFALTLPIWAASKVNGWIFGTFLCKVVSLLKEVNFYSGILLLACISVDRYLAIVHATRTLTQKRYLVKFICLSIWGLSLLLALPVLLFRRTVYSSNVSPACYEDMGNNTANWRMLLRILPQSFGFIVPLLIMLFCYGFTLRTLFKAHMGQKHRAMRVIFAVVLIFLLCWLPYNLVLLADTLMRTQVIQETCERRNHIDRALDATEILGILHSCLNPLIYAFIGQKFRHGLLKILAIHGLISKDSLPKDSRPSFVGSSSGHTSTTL

Endothelin-1 receptor = target: T5, Endothelin-1 receptor (Homo sapiens, UniProt P25101); format: cell membranes, Membrane; settings: cho-k1; also: in other assays of this panel Not Active means under 50% inhibition at 10 µM
T5 sequence (P25101 whole entry): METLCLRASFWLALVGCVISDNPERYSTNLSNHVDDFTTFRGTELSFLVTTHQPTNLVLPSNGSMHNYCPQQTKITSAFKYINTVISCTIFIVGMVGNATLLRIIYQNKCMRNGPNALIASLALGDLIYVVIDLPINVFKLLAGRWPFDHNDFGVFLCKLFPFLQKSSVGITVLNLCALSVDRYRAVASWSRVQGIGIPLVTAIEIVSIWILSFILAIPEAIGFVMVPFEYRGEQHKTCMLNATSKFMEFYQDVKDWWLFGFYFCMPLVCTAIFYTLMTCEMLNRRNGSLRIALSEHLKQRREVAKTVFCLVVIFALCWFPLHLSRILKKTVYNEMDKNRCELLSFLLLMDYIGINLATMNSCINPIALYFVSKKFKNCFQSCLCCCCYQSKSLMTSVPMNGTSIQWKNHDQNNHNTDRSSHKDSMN

Glycine receptor = Glycine receptor (Rattus norvegicus, UniProt P22771+P24524+P07727+P20781); format: cell membranes, Wistar, Spinal cord, Membrane; also: in other assays of this panel Not Active means under 50% inhibition at 10 µM
Melanocortin receptor 5 = Melanocortin receptor 5 (Homo sapiens, UniProt P33032); format: cell membranes, Membrane; settings: hek293; also: in other assays of this panel Not Active means under 50% inhibition at 10 µM
Nitric oxide synthase 1 = Nitric oxide synthase 1 (Rattus norvegicus, UniProt P29476); format: tissue-based, Cerebellum; also: in other assays of this panel Not Active means under 50% inhibition at 10 µM
Neutrophil elastase = target: T6, Neutrophil elastase (Homo sapiens, UniProt P08246); format: tissue-based
T6 sequence (P08246 whole entry): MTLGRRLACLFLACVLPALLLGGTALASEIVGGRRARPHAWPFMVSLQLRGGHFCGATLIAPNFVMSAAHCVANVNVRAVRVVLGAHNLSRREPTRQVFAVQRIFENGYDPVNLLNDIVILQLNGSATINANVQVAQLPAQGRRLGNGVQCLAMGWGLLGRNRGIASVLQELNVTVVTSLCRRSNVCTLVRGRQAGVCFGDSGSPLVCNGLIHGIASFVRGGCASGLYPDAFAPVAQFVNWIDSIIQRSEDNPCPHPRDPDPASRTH

[4] = target: Matrix metalloproteinase-9 (Homo sapiens, UniProt P14780); assay: biochemical; format: cell-based
[5] = target: Receptor tyrosine-protein kinase erbB-2 (Homo sapiens, UniProt P04626); assay: biochemical; format: cell-based, Insect cells; settings: insect cells

Measured: IC50

Sequence of Nitric oxide synthase 1 (P29476 whole entry): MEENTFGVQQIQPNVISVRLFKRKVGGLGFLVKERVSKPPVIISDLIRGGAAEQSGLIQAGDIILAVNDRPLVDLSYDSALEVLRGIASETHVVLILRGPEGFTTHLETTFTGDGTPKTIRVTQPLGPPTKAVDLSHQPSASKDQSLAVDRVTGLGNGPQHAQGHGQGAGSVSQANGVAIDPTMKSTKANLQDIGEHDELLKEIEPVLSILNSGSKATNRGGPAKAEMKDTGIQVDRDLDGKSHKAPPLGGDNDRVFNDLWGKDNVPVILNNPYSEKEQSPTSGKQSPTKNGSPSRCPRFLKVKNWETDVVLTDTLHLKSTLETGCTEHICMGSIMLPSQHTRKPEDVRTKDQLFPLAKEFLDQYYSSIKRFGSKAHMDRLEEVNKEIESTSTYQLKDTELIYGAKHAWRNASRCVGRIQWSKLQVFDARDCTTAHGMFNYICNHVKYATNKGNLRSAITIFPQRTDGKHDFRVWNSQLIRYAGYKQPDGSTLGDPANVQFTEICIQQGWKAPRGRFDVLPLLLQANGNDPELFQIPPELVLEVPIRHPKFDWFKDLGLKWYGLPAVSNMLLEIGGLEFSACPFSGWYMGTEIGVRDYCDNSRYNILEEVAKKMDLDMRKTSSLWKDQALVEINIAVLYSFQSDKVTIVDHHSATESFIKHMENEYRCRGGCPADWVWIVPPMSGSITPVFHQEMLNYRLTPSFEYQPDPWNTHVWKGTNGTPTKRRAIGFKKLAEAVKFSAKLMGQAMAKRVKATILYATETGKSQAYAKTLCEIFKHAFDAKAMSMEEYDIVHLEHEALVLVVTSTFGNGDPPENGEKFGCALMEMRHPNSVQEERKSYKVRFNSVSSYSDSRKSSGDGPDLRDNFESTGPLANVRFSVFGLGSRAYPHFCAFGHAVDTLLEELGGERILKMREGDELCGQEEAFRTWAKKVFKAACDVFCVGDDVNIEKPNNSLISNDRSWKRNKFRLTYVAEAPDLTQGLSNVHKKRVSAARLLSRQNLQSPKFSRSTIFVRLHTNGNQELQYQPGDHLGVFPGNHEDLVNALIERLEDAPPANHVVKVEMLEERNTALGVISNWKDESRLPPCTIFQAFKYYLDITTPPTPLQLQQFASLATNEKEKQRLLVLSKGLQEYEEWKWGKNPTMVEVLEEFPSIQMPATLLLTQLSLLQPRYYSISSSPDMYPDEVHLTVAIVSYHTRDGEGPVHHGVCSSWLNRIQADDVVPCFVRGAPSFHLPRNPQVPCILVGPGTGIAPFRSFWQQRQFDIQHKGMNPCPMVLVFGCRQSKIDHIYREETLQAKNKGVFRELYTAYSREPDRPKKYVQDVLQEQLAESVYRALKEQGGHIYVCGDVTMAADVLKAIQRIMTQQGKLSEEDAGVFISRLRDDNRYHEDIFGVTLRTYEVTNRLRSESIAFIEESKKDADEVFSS
Sequence of Matrix metalloproteinase-9 (P14780 whole entry): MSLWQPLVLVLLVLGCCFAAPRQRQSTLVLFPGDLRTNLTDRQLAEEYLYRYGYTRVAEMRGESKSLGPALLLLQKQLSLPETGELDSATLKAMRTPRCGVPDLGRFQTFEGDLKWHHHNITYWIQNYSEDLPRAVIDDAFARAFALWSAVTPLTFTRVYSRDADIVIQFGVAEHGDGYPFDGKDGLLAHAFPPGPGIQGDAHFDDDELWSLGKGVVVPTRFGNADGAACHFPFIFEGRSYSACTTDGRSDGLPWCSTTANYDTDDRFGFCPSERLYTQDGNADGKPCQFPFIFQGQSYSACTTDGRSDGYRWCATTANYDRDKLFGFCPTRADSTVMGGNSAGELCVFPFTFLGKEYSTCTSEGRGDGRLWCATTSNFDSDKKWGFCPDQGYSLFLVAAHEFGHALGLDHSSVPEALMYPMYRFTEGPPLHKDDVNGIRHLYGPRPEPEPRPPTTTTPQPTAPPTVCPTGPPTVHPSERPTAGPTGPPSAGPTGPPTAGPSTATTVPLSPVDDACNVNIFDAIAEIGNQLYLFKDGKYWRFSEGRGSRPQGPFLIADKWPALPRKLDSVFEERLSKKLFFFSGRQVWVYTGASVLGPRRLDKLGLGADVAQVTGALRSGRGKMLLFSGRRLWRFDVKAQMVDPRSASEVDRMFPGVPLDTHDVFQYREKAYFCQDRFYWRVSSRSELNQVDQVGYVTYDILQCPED
Sequence of Melanocortin receptor 5 (P33032 whole entry): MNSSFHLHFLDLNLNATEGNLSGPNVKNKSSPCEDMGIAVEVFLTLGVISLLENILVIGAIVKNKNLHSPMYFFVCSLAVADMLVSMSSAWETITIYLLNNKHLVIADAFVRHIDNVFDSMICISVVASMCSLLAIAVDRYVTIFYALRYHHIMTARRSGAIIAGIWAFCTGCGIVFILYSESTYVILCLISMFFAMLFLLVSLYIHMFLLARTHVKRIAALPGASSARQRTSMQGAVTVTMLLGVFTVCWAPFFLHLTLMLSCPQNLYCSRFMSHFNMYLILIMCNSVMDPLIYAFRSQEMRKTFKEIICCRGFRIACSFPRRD
Sequence of Receptor tyrosine-protein kinase erbB-2 (P04626 whole entry): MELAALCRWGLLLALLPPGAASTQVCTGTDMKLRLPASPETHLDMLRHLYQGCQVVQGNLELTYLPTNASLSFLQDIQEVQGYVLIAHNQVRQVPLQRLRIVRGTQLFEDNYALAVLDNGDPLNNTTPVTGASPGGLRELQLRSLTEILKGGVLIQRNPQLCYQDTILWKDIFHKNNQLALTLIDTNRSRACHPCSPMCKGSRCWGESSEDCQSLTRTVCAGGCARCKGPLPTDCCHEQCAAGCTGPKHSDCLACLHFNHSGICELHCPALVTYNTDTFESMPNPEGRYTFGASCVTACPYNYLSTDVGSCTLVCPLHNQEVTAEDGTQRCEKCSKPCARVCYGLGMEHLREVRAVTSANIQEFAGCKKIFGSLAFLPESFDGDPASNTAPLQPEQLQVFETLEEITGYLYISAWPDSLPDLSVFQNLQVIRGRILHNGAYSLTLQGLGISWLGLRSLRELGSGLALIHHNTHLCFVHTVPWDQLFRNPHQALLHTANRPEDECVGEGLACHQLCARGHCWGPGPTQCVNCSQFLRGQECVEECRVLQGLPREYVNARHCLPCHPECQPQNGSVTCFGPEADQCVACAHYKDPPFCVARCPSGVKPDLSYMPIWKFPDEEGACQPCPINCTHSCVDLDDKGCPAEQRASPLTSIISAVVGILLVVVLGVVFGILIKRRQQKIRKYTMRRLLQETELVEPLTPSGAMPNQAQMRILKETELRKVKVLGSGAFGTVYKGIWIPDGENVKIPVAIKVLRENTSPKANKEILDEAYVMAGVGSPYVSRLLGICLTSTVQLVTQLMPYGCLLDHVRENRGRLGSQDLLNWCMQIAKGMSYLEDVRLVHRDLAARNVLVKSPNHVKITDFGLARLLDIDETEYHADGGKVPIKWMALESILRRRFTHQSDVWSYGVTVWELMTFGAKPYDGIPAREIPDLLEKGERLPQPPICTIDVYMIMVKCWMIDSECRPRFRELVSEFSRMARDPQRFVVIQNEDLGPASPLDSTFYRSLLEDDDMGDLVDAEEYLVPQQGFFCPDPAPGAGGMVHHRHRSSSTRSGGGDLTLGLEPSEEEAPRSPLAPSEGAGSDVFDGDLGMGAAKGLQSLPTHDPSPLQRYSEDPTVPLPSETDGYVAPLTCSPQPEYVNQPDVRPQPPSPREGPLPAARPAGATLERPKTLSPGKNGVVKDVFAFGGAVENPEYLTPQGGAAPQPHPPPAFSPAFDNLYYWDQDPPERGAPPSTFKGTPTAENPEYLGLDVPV

COCCOC(=O)C1=C(C)NC(C)=C(C(=O)OC(C)C)C1c1cccc([N+](=O)[O-])c1 (stereo unspecified) [NIMODIPINE]
Not Active: all assays above

CC(C)NCC(O)COc1cccc2ccccc12 (stereo unspecified) [PROPRANOLOL]
Not Active: all assays above

COCCCOc1ccnc(C[S+]([O-])c2nc3ccccc3[nH]2)c1C (stereo unspecified) [RABEPRAZOLE]
Not Active: all assays above

CNC(=C[N+](=O)[O-])NCCSCc1ccc(CN(C)C)o1 [RANITIDINE]
Not Active: all assays above

CO[C@H]1/C=C/O[C@@]2(C)Oc3c(C)c(O)c4c(c3C2=O)C2=NC3(CCN(CC(C)C)CC3)NC2=C(NC(=O)/C(C)=C\C=C\[C@H](C)[C@H](O)[C@@H](C)[C@@H](O)[C@@H](C)[C@H](OC(C)=O)[C@@H]1C)C4=O [RIFABUTIN]
Not Active: all assays above

CC(C)c1nc(CN(C)C(=O)N[C@H](C(=O)N[C@@H](Cc2ccccc2)C[C@H](O)[C@H](Cc2ccccc2)NC(=O)OCc2cncs2)C(C)C)cs1 [RITONAVIR]
Not Active: all assays above

CC(C)CC(N(C)C)C1(c2ccc(Cl)cc2)CCC1 (stereo unspecified) [SIBUTRAMINE]
Not Active: all assays above

[H]/N=C(/N)N[C@H]1[C@H](O)[C@@H](O)[C@H](O[C@@H]2O[C@@H](C)[C@](O)(C=O)[C@H]2O[C@@H]2O[C@@H](CO)[C@H](O)[C@@H](O)[C@@H]2NC)[C@@H](N/C(N)=N\[H])[C@@H]1O [STREPTOMYCIN]
Not Active: all assays above

COc1cc(NS(=O)(=O)c2ccc(N)cc2)nc(OC)n1 [SULFADIMETHOXINE]
Not Active: all assays above

Cc1cc(C)nc(NS(=O)(=O)c2ccc(N)cc2)n1 [SULFAMETHAZINE]
Not Active: all assays above

C[C@]1(Cn2ccnn2)[C@H](C(=O)O)N2C(=O)C[C@H]2S1(=O)=O [TAZOBACTAM]
Not Active: all assays above
